Results: the Kinase Knowledgebase extract (Sharma et al. 2016)

What follows are compounds tested against EGFR (mouse) (UniProt P00533). Settings: swiss 3t3 membrane.

IC50 [µM]	SMILES
30	N#C/C(=C\c1c[nH]c2ccccc12)C(=O)c1ccc(O)c(O)c1
> 30	COc1ccc(OC)c2nc(Cl)c(-c3ccccc3)cc12

SMILES	IC50 [µM]
N#CC(C#N)=C(N)/C(C#N)=C/c1c[nH]c2ccccc12	> 300
